Laboratory results: PubChem BioAssay (NCI)
Where “and” joins values, the source holds several entries; their conditions need not be identical. Equal values may be shown once.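 Cultured in 96-well plates, cells were exposed to test compound for 48 hours across five concentrations. At the GI50, growth is halved. TGI is the concentration that stops growth completely.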

Columns and labels:
Assay in all cases: NCI tumour cell line growth inhibition, 48 h
SNB-19 CNS = system: SNB-19 CNS
MCF7 breast = system: MCF7 breast
OVCAR-8 ovarian = system: OVCAR-8 ovarian
M19-MEL melanoma = system: M19-MEL melanoma
HT29 colon = system: HT29 colon
LXFL 529 NSCLC = system: LXFL 529 NSCLC
SNB-75 CNS = system: SNB-75 CNS
SR leukemia = system: SR leukemia
NCI-H460 lung = system: NCI-H460 lung
SF-539 CNS = system: SF-539 CNS
DU-145 prostate = system: DU-145 prostate
LOX IMVI melanoma = system: LOX IMVI melanoma
SF-295 CNS = system: SF-295 CNS
HOP-62 NSCLC = system: HOP-62 NSCLC
P388/ADR leukemia = system: P388/ADR leukemia
P388 leukemia = system: P388 leukemia
SN12K1 renal = system: SN12K1 renal

Row | SMILES | GI50 (SNB-19 CNS) [µM] | TGI (SNB-19 CNS) | TGI (MCF7 breast) | GI50 (OVCAR-8 ovarian) [µM] | TGI (HT29 colon) | TGI (LXFL 529 NSCLC) [µM] | GI50 (SNB-75 CNS) [µM] | TGI (SNB-75 CNS) | GI50 (SR leukemia) [µM] | TGI (SR leukemia) | GI50 (NCI-H460 lung) [µM] | GI50 (SF-539 CNS) [µM] | TGI (SF-539 CNS) | GI50 (DU-145 prostate) [µM] | TGI (DU-145 prostate) | GI50 (LOX IMVI melanoma) [µM] | GI50 (SF-295 CNS) [µM] | TGI (SF-295 CNS) | TGI (HOP-62 NSCLC) | also measured
1 | CCCCCCCCCCCCCCCCCCOP(=O)([O-])OC1CC[N+](C)(C)CC1 | 5.02 | > 10 µM and 23.2 µM | > 10 µM and 34 µM | > 10 | > 10 µM and 14.4 µM | 16.5 | > 10 | > 10 µM and 20 µM | 0.87 | 4.2 µM and 5.74 µM | 2.85 | > 10 | > 10 µM and 29.7 µM | > 10 | > 10 µM and 38.5 µM | 3.89 | 3.63 | > 10 µM and 18.2 µM | > 10 µM and 20.7 µM | GI50 (MCF7 breast): > 10 µM; TGI (OVCAR-8 ovarian): > 10 µM and 28.8 µM; TGI (M19-MEL melanoma): 14.8 µM; GI50 (HT29 colon): 3.04 µM; TGI (NCI-H460 lung): > 10 µM and 7.65 µM; TGI (LOX IMVI melanoma): > 10 µM and 22 µM; GI50 (HOP-62 NSCLC): 3.2 µM
2 | COc1cccc2c1C(CO)N1C(C#N)C3CC(C(=O)O)C(C1C2)N3C (centres undefined) | 0.212 | > 15.5 µM | > 44 µM | 0.372 | 6.55 µM | 6.67 | 0.298 | 5.42 µM and 1.99 µM | 0.0308 | 7.2 µM | 1.24 | 0.195 | 3.11 µM and 1.02 µM | 0.365 | > 100 µM | 0.254 | 0.42 | 27.2 µM | 8.15 µM and 3.73 µM | TGI (P388/ADR leukemia): 1.09 µM; GI50 (M19-MEL melanoma): 0.256 µM; TGI (P388 leukemia): 6.42 µM; TGI (SN12K1 renal): > 100 µM
